Key:
RBL-2H3 cells = test: RBL-2H3 cell degranulation inhibition test; assay type: cell-based, rat; details: untreated control = 100
Procedure: Whether or not an anti-I-type allergy agent has a degranulation inhibitory action can be confirmed through the following method. For example, cells, such as rat basophilic leukemia cells (RBL-2H3 cells), which extracellularly release […] containing histamine through cross-linking of IgE bound on a cell surface due to an antigen are used. The extent to which the degranulation of a specimen to which an anti-I-type allergy agent is added is inhibited when these cells are stimulated by the antigen is calculated compared to a specimen to which no anti-I-type allergy agent is added. RBL-2H3 cells, which were rat basophilic leukemia cells, (National Institutes of Biomedical Innovation, Health and Nutrition) were seeded in a 96-well plate and were then cultured overnight. […] Then, the cells were washed with the buffer solutions. Furthermore, the prepared 1,000, 500, and 250 μg/mL test solutions were added thereto so that the final concentrations became 500 μg/mL (Example 1), 250 μg/mL (Example 2), and 125 μg/mL (Example 3), respectively. Thereafter, the mixtures were allowed to react at 37° C. for 10 minutes. Then, DNP-labeled human serum albumin was added thereto, and the mixtures were further allowed to react at 37° C. for 3 hours. […] For each sample of Examples 1 to 3, Comparative Example 1, a positive control, an antigen-unstimulated control, and sample blanks, the absorbance of p-nitrophenol generated by reaction between a substrate and β-hexosaminidase present in granules was measured (at a measurement wavelength of 405 nm and a control wavelength of 650 nm) using a microplate reader (SpectraMax M2e, Molecular Devices, LLC.) The emission rate was obtained using the following equation from the absorbance of each sample with respect to the absorbance of Comparative Example 1, and each degranulation rate was calculated from the emission rate. In the equation, “absorbance on cell supernatant” and “absorbance on cell solution side” are values obtained by subtracting the sample blanks. Emission rate (%)=absorbance on cell supernatant side/(absorbance on cell supernatant side+absorbance on cell solution side) Degranulation rate (%)={average value of (emission rate of test solution−emission rate of antigen-unstimulated control)/(emission rate of untreated control−emission rate of antigen-unstimulated control)}×100

[1] = test system: short-term memory impairment caused by accumulation of amyloid β proteins; test: Y-shaped maze test in mice injected with amyloid β; assay type: in vivo; details: 100 mg/kg oral once a day
Procedure: p-Coumaric acid (trans-p-coumaric acid, Tokyo Chemical Industry Co., Ltd.) was stored at room temperature (control temperature: 18.0° C. to 28.0° C.) until it was used in a test. Injection water (Otsuka distilled water, Otsuka Pharmaceutical Factory, Inc.) was prepared as a medium in which p-coumaric acid was to be dissolved. The required amount of p-coumaric acid was weighed out and dissolved in the injection water. Then, the dissolved p-coumaric acid was diluted to a predetermined concentration to obtain a test solution.
Amyloid β (Amyloid-β Protein (25-35, Polypeptide Laboratories) to be used in an amyloid β solution was stored in a freezer (control temperature: −30° C. to −20° C.) until it was to be used in a test. Amyloid β was dissolved in injection water to 2 mM to prepare an amyloid β solution.
Male Slc:ddY mice (SPF, Japan SLC, Inc.) were used as test animals 5-week-old mice were obtained as the mice. Mice are animal species generally used in behavioral pharmacology tests, and maintenance of their strains is clear. The body weight range of the mice 1 day after the acquisition was 23.8 to 30.0 g.
Grouping was performed through a random sampling method on the start day of administration of a test solution so that the average body weight of each group was approximately uniform. As a group configuration, there were three groups: a pseudo-operation group, a medium control group, and a p-coumaric acid administration group. In the p-coumaric acid administration group, the amount of solution administered was calculated as 10 mL/kg based on the body weight on the administration day so that the amount of p-coumaric acid administered was 100 mg/kg per mouse. A 0.5% (w/v) methyl cellulose solution was administered to the pseudo-operation group and the medium control group at 10 mL/kg.
The start day of administration of a test solution was regarded as day 1 of administration, the test solution was administered once a day, and an amyloid β solution was injected into the mice on day 8 of the administration. Thereafter, a Y-shaped maze test was carried out on day 14 of the administration. Each procedure will be described below.
The administration route was oral administration. Regarding the administration method, a test solution was orally administered according to a usual method used in test facilities using a polypropylene disposable injection cylinder (TERUMO CORPORATION) equipped with a disposable oral sonde for mice (Fuchigami Kikai). At the time of the administration operation, the test solution was mixed by inversion every time it was administered to a mouse, and was then sucked into the injection cylinder. On the day of injection of an amyloid β solution, the test solution was administered after the injection of the amyloid β solution. […]

[2] = day 14, 8 minutes in maze, mean ± standard error

Structure (SMILES) | degranulation rate (RBL-2H3 cells; Wortmannin final concentration 25 nmol/L) [%] | Spontaneous alternation behavior number [1, 2] | Spontaneous behavior alternation rate (%) [1, 2] [%] | Total entry number [1, 2] | spontaneous alternation behavior rate compared with medium control group ([1]; day 14, significant difference p<0.01) | degranulation rate (RBL-2H3 cells; p-coumaric acid final concentration 125 μg/mL) [%] | degranulation rate (RBL-2H3 cells; p-coumaric acid final concentration 250 μg/mL) [%] | degranulation rate (RBL-2H3 cells; p-coumaric acid final concentration 500 μg/mL, anti-DNP-IgE sensitised, DNP-labeled human serum albumin stimulated) [%]
COC[C@H]1OC(=O)c2coc3c2[C@@]1(C)C1=C(C3=O)[C@@H]2CCC(=O)[C@@]2(C)C[C@H]1OC(C)=O [Wortmannin, reference compound] | 39±6.4 | – | – | – | – | – | – | –
O=C(O)/C=C/c1ccc(O)cc1 [p-Coumaric acid] | – | 21.3 ± 1.5 | 66.0 ± 1.4 | 34.2 ± 2.1 | higher than that of the medium control group | 78±8.1 | 46±8.0 | 12±3.0

From patent US20210059964A1, “Anti-I-Type Allergy Agent, Degranulation Inhibitor for Basophils and Mast Cells, Anti-Dementia Agent, Agent for Improving/Inhibiting Short-Term Memory Impairment” (Mitsui Sugar Co., Ltd., priority 2018, published 2021)
